From patent publication US8603945B2, “Methods and compositions for providing salicyclic acid-independent pathogen resistance in plants” (The Regents of the University of California, priority 2008, dated 2013)
Entries after “also recorded” stand apart in the source; their conditions may differ. Like-named read-outs stand apart in the source and are kept apart here.

Experiments:
[1] = test system: HpNoco2 (virulent Peronospora); assay: HpNoco2 disease resistance assay on soil grown seedlings (spore / sporangiophore counts 7 dpi); assay type: in vivo, Arabidopsis; settings: for efficiency in inducing resistance to HpNoco2 (defense inducing activity): infection 48 hours after treatment, structure-activity analysis
Protocol: (§1) (A) RT-PCR analysis of CaBP22 and WRKY70 expression in Col-0 (wild type) and mutant backgrounds 24 hours after spraying 2 week old seedlings with water (un), 1 mM SA, or 100 μM DCA. ACT8 is shown as loading control. […] (B) Two week old seedlings were sprayed with virulent HpNoco2 24 hours after pre-treatment with 100 uM DCA. Spores were counted 7 days after spray infection. Means and standard errors were calculated from three independent experiments. Mann-Whitney U test (p<0.05) was used to determine significant differences among mutants.
(§2) A: Extent of disease susceptibility/resistance determined by counting the numbers of Peronospora sproangiophores of 17 day old seedlings 7 d after spray-inoculation with 5E4 HpNoco2 spores/ml. 24 h prior to infection with Noco2 the aerial parts of the soil grown seedlings were sprayed with the indicated concentrations of DCA (compound 67) or SA. Three replicates each with at least 30 seedlings per treatment gave similar results. […] Concentrations higher than 100 μM caused cell death, as indicated by reduced GUS staining.
(§3) (A) Chemical structures of DCA analogs analyzed. (B) Fluorometric analysis of GUS activities induced by DCA analogs. Proteins were extracted from 2 week old soil grown Col-0 seedlings 48 hours after spray-treatment with compounds at the indicated concentrations (uM). Means and standard errors calculated from 3 independent replicates. (c) HpNoco2 growth inhibition assay. 2 week old soil grown Col-0 seedlings were spray-infected with HpNoco2 48 hours after treatment with varying concentrations (uM) of each DCA analog. Seedlings were assayed 7 dpi for Peronospora growth (spore counts). 100% inhibition=0 spores. Assay was repeated three times with similar results.
DCA induces disease resistance. Time-course experiment with 2-week old Col-0 seedlings that were sprayed with 100 uM of the respective compounds at the indicated times prior to HpNoco2 (3×10^4 spores/ml) spray-infection. Spores were counted 7 dpi.

−333_CaBP22::GUS [2] = assay: GUS activity after spray-treatment of soil grown seedlings (structure-activity analysis, FIG. 5B, FIG. 8B); assay type: in vivo, Arabidopsis; settings: for efficiency in inducing −333_CaBP22::GUS expression (defense inducing activity): 48 hours after spray-treatment, structure-activity analysis
Protocol: as §3, with “(B) Fluorometric analysis of GUS activities induced by DCA analogs.” left out, “spores.” for “spores. Assay was repeated three times with similar results.”
DCA and the known SA-analog INA are structurally related. To compare their activities and to gain further understanding on structural features required for their defense inducing activities, a structure function analysis (SAR) was performed using multiple derivatives of DCA and INA (FIG. 8A).

−333_CaBP22::GUS [3] = assay: −333_CaBP22::GUS reporter induction in one-week old seedlings grown in liquid medium (Xgluc staining / MUG assay); assay type: in vivo, Arabidopsis; settings: for EC50: −333_CaBP22::GUS, MUG assay, read-out: EC50 value (effective concentration leading to a half-maximal response)
Protocol: A: Structure of DCA. B/C: Dose-response curves. One-week old −333_CaBP22::GUS seedlings were grown in liquid medium and incubated with the indicated concentrations of DCA (67) or SA for 24 h prior to Xgluc staining (blue, panel B) or quantitative assays for GUS activity using 4-methyl umbelliferyl-glucuronide (MUG, panel C).
LURP expression appears to be controlled by a multitude of defense regulators including AtWRKY70 and so far unknown transcription factors. […] Thus LURP-promoter/reporter systems are useful tools to screen for defense inducing chemicals. A 333_CaBP22::GUS line was used to screen chemical libraries of the Center for Plant Cell Biology at UC-Riverside for substances that induce activity of this reporter in the absence of pathogens. One week old seedlings of the reporter line grown in 96 well plates with liquid MS medium were treated with library chemicals at a final concentration of 4-20 microM in 0.001% DMSO and stained with X-Gluc to detect GUS activity 24 h later (FIG. 2). The library chemicals were transferred from 384 well plates to the 96 well screening plates by a “96 pin-tool” using a pipetting robot.
Most of the identified −333_CaBP22::GUS-inducers are structurally related to the defense hormone salicylic acid (SA). One of these compounds, 3,5-Dichloroanthranilic acid (DCA, FIG. 3A) to be particularly efficient in inducing −333_CaBP22::GUS expression. The chemical structure of this compound was confirmed by NMR and MS analyses. […] Thus, DCA has a high specificity for its cellular target. Consistent with this the EC50 value (effective concentration leading to a half-maximal response) of DCA is 6 uM (FIG. 3C), which is lower than the published EC50 value for PR1 induction by SA and its functional analog INA (65 and 10 uM, respectively; Wendehenne et al., 1998; Pillonel, 2001).

[4] = test system: −333_CaBP22::GUS seedlings; assay: toxic effects on plants after spraying aerial parts of seedlings; assay type: in vivo
Protocol: as §2

CaBP22 = assay: semiquantitative RT-PCR of CaBP22 expression; assay type: in vivo, Arabidopsis
Protocol: as §1, with “(A) RT-PCR analysis of CaBP22 and WRKY70 expression in Col-0 (wild type) and mutant backgrounds 24 hours after spraying 2 week old seedlings with water (un), 1 mM SA, or 100 μM DCA.” left out
As the CaBP22-induction by DCA is blocked in the wrky70 mutant, this compound can interfere with a signaling component that acts upstream from WRKY70 transcription and either independently of downstream from SA. Based on this DCA targets a WRKY70-dependent branch of the defense signaling network.

WRKY70 = assay: semiquantitative RT-PCR of WRKY70 expression; assay type: in vivo, Arabidopsis
[5] = test system: Pseudomonas syringae DC3000 (Pst DC3000); assay: Pst DC3000 disease resistance in Arabidopsis seedlings (dip inoculation, cfu); assay type: in vivo; settings: 100 uM
Protocol: (§4) (A &B) 14 day old soil grown Arabidopsis Col-0 seedlings were pre-treated with 100 uM of the indicated chemical then dip inoculated with Pst DC3000. (A) Photos taken 5 dpi. (B) Quantification of Pst DC3000 growth by counting colony forming units (cfu) at day 0 (grey bars) or day 3 (black bars). Significant differences were determined by Mann-Whitney U tests (p<0.05). (C) Pst DC3000 grown in liquid culture with 100 um of the indicated chemicals or 100 ug/ml hygromycin (HYG). OD600 reflecting bacterial density was measured at indicated times (hours) after inoculation. Standard errors were all less than 0.05 so are not visible on the graph. (D) Two week old cherry tomato seedlings sprayed 0.5 mM DCA, 4 mM SA or mock-treated two days prior to swab inoculation with Pst DC3000 (OD600=0.4). Photos were taken 6 days after Pst challenge.

Pst DC3000 [6] = assay: Pst DC3000 growth in liquid culture (OD600); assay type: cell-based, Pseudomonas syringae; settings: 100 um in liquid culture
Pst DC3000 [7] = assay: Pst DC3000 disease symptoms in cherry tomato seedlings (swab inoculation); assay type: in vivo; settings: 500 uM, sprayed two days prior to inoculation
Protocol: as §4

[8] = test system: cluster of 131 Arabidopsis genes (Table 1); assay: Affymetrix ATH1 whole genome microarray of induced transcriptional responses; assay type: in vivo
Protocol: This transient activity of DCA functionally discriminates it from INA and allows us to precisely correlate molecular event, such as transcriptional changes, with disease resistance. Therefore we performed a set of microarray experiments with Affymetrix ATH1 Arabidopsis whole genome chips profiling DCA- and INA-induced transcriptional responses at 48 h and 6 d post treatment. […] The reference accession numbers and information can be used by one of skill in the art to obtain the sequences and additional information from public databases available at the time of filing.

PR1 = settings: Wendehenne et al., 1998; Pillonel, 2001; read-out: published EC50 value for PR1 induction; cited from earlier work
[9] = most Arabidopsis defense signaling mutants

O=C(O)c1cc(Cl)cc(Cl)c1 [3,5-Dichlorobenzoic acid, reference compound]
efficiency in inducing resistance to HpNoco2 (defense inducing activity) [1]: DCA is more active than 3,5-Dichlorobenzoic acid | efficiency in inducing −333_CaBP22::GUS expression (defense inducing activity) (−333_CaBP22::GUS [2]): DCA is more active than 3,5-Dichlorobenzoic acid

O=C(O)c1ccccc1 [benzoic acid, reference compound]
efficiency in inducing resistance to HpNoco2 (defense inducing activity) [1]: nearly completely inactive | efficiency in inducing −333_CaBP22::GUS expression (defense inducing activity) (−333_CaBP22::GUS [2]): nearly completely inactive

Nc1ccccc1C(=O)O [anthranilic acid, reference compound]
efficiency in inducing resistance to HpNoco2 (defense inducing activity) [1]: nearly completely inactive | efficiency in inducing −333_CaBP22::GUS expression (defense inducing activity) (−333_CaBP22::GUS [2]): nearly completely inactive

Nc1c(Cl)cc(Cl)cc1C(=O)O [DCA, 3,5-Dichloroanthranilic acid]
EC50 (−333_CaBP22::GUS [3]; Arabidopsis thaliana, 24 h, 24 h): 6 µM | concentration at which active as inducer of −333_CaBP22::GUS (−333_CaBP22::GUS [3]; liquid medium, 24 h, FIG. 3B): 0.1 µM | active at x-fold lower concentrations than SA (−333_CaBP22::GUS induction) (−333_CaBP22::GUS [3]; versus SA, FIG. 3B): 10 fold | EC50 (−333_CaBP22::GUS [3]; 24 h): 7 µM | resistance to HpNoco2 in npr1 mutant ([1]; 100 uM pre-treatment 24 h, npr1 mutant): slight reduction | resistance to HpNoco2 in wrky70 mutant ([1]; 100 uM pre-treatment 24 h, wrky70 mutant): partially reduced | duration of defense-inducing activity ([1]; 100 uM, time-course, FIG. 9): only transiently active | time after treatment by which strong disease resistance is reached ([1]; 100 uM, time-course, FIG. 9): ≤ 1 h | efficiency in inducing resistance to HpNoco2 (defense inducing activity) [1]: nearly identical; also recorded: equally efficient | concentration giving efficient induction of disease resistance against virulent Peronospora (as low as) ([1]; sprayed on aerial parts of soil grown seedlings 24 h prior to HpNoco2): 10 µM | concentrations causing cell death (reduced GUS staining) [4]: higher than 100 μM | endogenous CaBP22 gene expression (CaBP22; 10 uM, wild type): activates | CaBP22 expression in most mutants with deficiencies in defense signaling (CaBP22; [9]): wild type expression | effect of nahG transgene on induction of CaBP22 (CaBP22; nahG (SA-catabolizing enzyme)): does not suppress | CaBP22-induction in wrky70 mutant (CaBP22; wrky70 mutant): blocked | WRKY70 expression (WRKY70; 10 uM, wild type): activates | WRKY70 expression in most mutants with deficiencies in defense signaling (WRKY70; [9]): wild type expression | effect of nahG transgene on induction of WRKY70 (WRKY70; nahG (SA-catabolizing enzyme)): does not suppress | disease resistance to Pst DC3000 ([5]; Arabidopsis Col-0): triggered disease resistance | suppression of bacterial growth (cfu) compared with SA and INA ([5]; day 3): more efficiently than SA or the frequently used SA analog INA | growth of Pst DC3000 in in vitro cultures (Pst DC3000 [6]): does not affect growth | Pst DC3000 mediated disease symptoms in tomato (Pst DC3000 [7]): suppressed Pst DC3000 mediated disease symptoms such as chlorosis | efficiency in inducing −333_CaBP22::GUS expression (defense inducing activity) (−333_CaBP22::GUS [2]): nearly identical | reporter gene expression after spraying aerial parts (−333_CaBP22::GUS [2]; spraying of 10-100 uM): induced reporter gene expression | up-regulation of cluster of 131 genes at 48 h post treatment [8]: significantly up-regulated | up-regulation of cluster of 131 genes at 6 d post treatment [8]: not at 6 d post DCA treatment

O=C(O)c1ccccc1O [SA, salicylic acid]
efficiency in inducing resistance to HpNoco2 (defense inducing activity) [1]: less efficiently than DCA or INA | efficiency in inducing −333_CaBP22::GUS expression (defense inducing activity) (−333_CaBP22::GUS [2]): less efficiently than DCA or INA | EC50 (PR1): 65 µM

O=C(O)c1cccc(Cl)c1 [3-Chlorobenzoic acid, reference compound]
efficiency in inducing resistance to HpNoco2 (defense inducing activity) [1]: 3-Chloroanthranilic acid is more active than 3-Chlorobenzoic acid | efficiency in inducing −333_CaBP22::GUS expression (defense inducing activity) (−333_CaBP22::GUS [2]): 3-Chloroanthranilic acid is more active than 3-Chlorobenzoic acid

Nc1c(Cl)cccc1C(=O)O [3-Chloroanthranilic acid]
efficiency in inducing resistance to HpNoco2 (defense inducing activity) [1]: reduced defense inducing activities | efficiency in inducing −333_CaBP22::GUS expression (defense inducing activity) (−333_CaBP22::GUS [2]): reduced defense inducing activities

Nc1ccc(Cl)cc1C(=O)O [5-Chloroanthranilic acid]
efficiency in inducing resistance to HpNoco2 (defense inducing activity) [1]: reduced defense inducing activities | efficiency in inducing −333_CaBP22::GUS expression (defense inducing activity) (−333_CaBP22::GUS [2]): reduced defense inducing activities

O=C(O)c1cc(Cl)nc(Cl)c1 [INA, 2,6-dichloroisonicotinic acid, reference compound]
duration of defense-inducing activity ([1]; 100 uM, time-course, FIG. 9): lasts much longer leading to strong disease resistance for the entire duration of the experiment | efficiency in inducing resistance to HpNoco2 (defense inducing activity) [1]: nearly identical; also recorded: equally efficient | efficiency in inducing −333_CaBP22::GUS expression (defense inducing activity) (−333_CaBP22::GUS [2]): nearly identical | up-regulation of cluster of 131 genes at 48 h post treatment [8]: significantly up-regulated | up-regulation of cluster of 131 genes at 6 d post treatment [8]: significantly up-regulated | EC50 (PR1): 10 µM

Nc1cccc(Cl)c1C(=O)O [6-Chloroanthranilic acid, reference compound]
efficiency in inducing resistance to HpNoco2 (defense inducing activity) [1]: completely inactive | efficiency in inducing −333_CaBP22::GUS expression (defense inducing activity) (−333_CaBP22::GUS [2]): completely inactive
